The target in experiment [1] is T1, NEK2 kinase (Accession No. NP-002488) (Homo sapiens, UniProt P51955).
T1 construct: purchased ThermoFisher Scientific (Invitrogen)
T1 sequence (P51955 1-445): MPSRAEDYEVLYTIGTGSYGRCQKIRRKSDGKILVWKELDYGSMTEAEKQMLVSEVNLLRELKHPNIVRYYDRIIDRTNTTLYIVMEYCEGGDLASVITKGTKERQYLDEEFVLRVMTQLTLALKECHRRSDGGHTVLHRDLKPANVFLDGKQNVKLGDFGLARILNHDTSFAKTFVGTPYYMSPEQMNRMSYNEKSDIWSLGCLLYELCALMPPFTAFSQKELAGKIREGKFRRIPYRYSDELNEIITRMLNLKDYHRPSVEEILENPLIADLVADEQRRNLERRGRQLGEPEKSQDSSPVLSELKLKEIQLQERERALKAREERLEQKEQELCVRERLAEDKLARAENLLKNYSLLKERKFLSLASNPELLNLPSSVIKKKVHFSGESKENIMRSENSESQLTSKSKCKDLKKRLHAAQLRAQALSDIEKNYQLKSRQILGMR
Kind of experiment: HotSpot Kinase Assay, NEK2. Type of experiment: biochemical. To be noted: HotSpot Kinase Assay; read-out: NEK2 IC50. The method, then: In this example, the compounds described herein were tested for their inhibitory activity against NEK2 and/or Aurora A using the HotSpot™ Kinase Assay (Reaction Biology Corp.). The assay was performed according to the manufacturer's protocol, as detailed below. The NEK2 kinase (Accession No. NP-002488) and Aurora A kinase (Accession No. NP-940839) for use in these assays was sourced from ThermoFisher Scientific (Invitrogen).
The base Reaction Buffer used in this experiment contained the following: 20 mM Hepes (pH 7.5), 10 mM MgCl2, 1 mM EGTA, 0.02% Brij™-35, 0.02 mg/ml BSA, 0.1 mM Na3VO4, 2 mM DTT, and 1% DMSO. The required cofactors were added individually to each kinase reaction.
Testing compounds were dissolved in 100% DMSO to a specific concentration. The serial dilution was conducted by Integra Viaflo Assist in DMSO.
The substrate was prepared in freshly prepared Reaction Buffer. The required cofactors were delivered to the substrate solution described above. NEK2 kinase or Aurora A kinase was delivered to the substrate solution and gently mixed. Next, the compounds in 100% DMSO were transferred to the kinase reaction mixture by Acoustic technology (Echo550; nanoliter range) and incubated for 20 min at room temperature. ^33P-ATP (Specific activity 10 μCi/μl) was delivered into the reaction mixture to initiate the reaction. The reaction was incubated for 2 hours at room temperature. Radioactivity was then detected by the filter-binding method. Kinase activity data were expressed as the percent remaining kinase activity in test samples compared to vehicle (dimethyl sulfoxide) reactions. IC50 values and curve fits were obtained using Prism (GraphPad Software).

The target in the next experiment is T2, NEK2 (Homo sapiens, UniProt P51955).
T2 construct: expressed in transfected cells; host or cells: HEK293
T2 sequence (P51955 1-445): T1 sequence (P51955 1-445)
Kind of experiment: NanoBRET Target Engagement Intracellular Kinase Assay for NEK2 in transfected HEK293 cells. To be noted: NEK2 target engagement, read-out: NanoBRET IC50. The experiment is classed as cell-based. The method, then: In this example, the compounds described herein were tested for their inhibitory activity against NEK2 using a model of in vivo activity by the NanoBRET™ Target Engagement Intracellular Kinase Assay (Reaction Biology Corp.). The assay was performed according to the manufacturer's protocol, as detailed below.
HEK293 cells were cultivated (70-80% confluence) prior to the assay. The sample was trypsinized and HEK293 cells were collected.
To prepare lipid: DNA complexes, a 10 μg/ml solution of DNA in Opti-MEM without serum was prepared that consisted of the following ratios of carrier DNA and DNA encoding NanoLuc® fusion: 9.0 μg/ml of Transfection Carrier DNA, 1.0 μg/ml of NanoLuc fusion vector DNA and 1 ml of Opti-MEM without phenol red. The solution was mixed thoroughly. 30 μl of FuGENE HD Transfection Reagent was added into each milliliter of DNA mixture to form lipid: DNA complex. The sample was mixed by inversion 10 times and then incubated at ambient temperature for 20 minutes to allow complexes to form. In a sterile, conical tube, 1 part of lipid:DNA complex was mixed with 20 parts of HEK293 cells in suspension. The resulting sample was mixed gently by inversion 5 times. The cell and lipid: DNA complex was dispensed into a sterile tissue culture dish and incubated for 22-24 hours.
Each test compound is delivered from the compound source plate to the wells of 384-well white NBS plate by Echo 550.
Step 3. Preparation of Cells with NanoBRET™ Tracer K5 Reagent:
The medium was removed from the dish with the transfected HEK293 cells via aspiration, trypsinized and cells were allowed to dissociate from the dish. Trypsin was neutralized using medium containing serum and centrifuged at 200×g for 5 minutes to pellet the cells. The cell density was adjusted to 2×10^5 cells/ml in Opti-MEM without phenol red.
The Complete 20× NanoBRET™ Tracer K5 Reagent with Tracer Dilution Buffer was prepared according to the manufacturer's instructions. One part of Complete 20× NanoBRET™ Tracer Reagent was added to 20 parts of cells in the tube. The sample was mixed gently by inversion 10 times. Next, the cell suspension was dispensed into white, 384-well NBS plates with a final tracer K5 concentration of 2 μM. The plate was incubated at 37° C., 5% CO2 for 1 hour. A separate set of samples without tracer were prepared for background correction steps.
The plate was removed from the incubator and equilibrated to room temperature for 15 minutes. The 3× Complete Substrate plus Inhibitor Solution in Assay Medium (Opti-MEMR I Reduced Serum Medium, no phenol red) was prepared just before measuring BRET. The 3× Complete Substrate plus Inhibitor Solution was added to each well of the 384-well plate and incubated for 2-3 minutes at room temperature. The donor emission wavelength (460 nm) and acceptor emission wavelength (600 nm) were measured using the Envision 2104 plate reader.
To generate raw BRET ratio values, the acceptor emission value (600 nm) was divided by the donor emission value (460 nm) for each sample. To correct for background, the BRET ratio in the absence of tracer (average of no-tracer control samples) was subtracted from the BRET ratio of each sample.
BRET Ratio=[(Acceptor sample÷Donor sample)−(Acceptor no-tracer control÷Donor no-tracer control)]
(In BRET a luciferase serves as donor, and the signal depends on an acceptor being close.)

In general, IC50 refers to the concentration that gives 50% inhibition. In the case of `N#Cc1c(Nc2nc(Nc3ccc(N4CCNCC4)cc3)ncc2Cl)cccc1OCc1ccccc1F` [Compound 16, 2-((5-chloro-2-((4-(piperazin-1-yl)phenyl)amino)pyrimidin-4-yl)amino)-6-((2-fluorobenzyl)oxy)benzonitrile], the IC50 in experiment [1] is not above 5 nM; at NEK2, not above 50 nM.
